Experimental data from patent US20260144805A1, “CANNABIDIOL COMPOSITIONS FOR USE IN THE TREATMENT OF NEURODEGENERATIVE AND NEUROLOGICAL DISORDERS” (JAZZ PHARMACEUTICALS RESEARCH UK LIMITED, priority 2022, published 2026).

Assays:
Assay type in all cases: in vivo
rat VPA model [1] = test: Irritability-like behaviour: bottle brush test in rat VPA model, juvenile P30 and adult (Example 5; DS = DS-E); details: risperidone 0.125 mg/kg
Method: (§1) Time-mated female Wistar rats were administered a single dose of valproic acid (VPA, 600 mg/kg, i.p.) on gestational day 12.5. Male offspring were delivered and confirmation of the VPA induced developmental deficit was rapidly achieved by examination of characteristic “tail kinks” in the juvenile animals. The timeline of experiments is outlined in FIG. 8 and animals were randomly allocated to treatment groups (Table O).
(§2) Control animals were administered sterile saline (0.9% w/v, i.p.) in utero and the vehicle control (ethanol: Kolliphor HS15: saline (1:1:18, v/v/v), i.p.
To test irritability-like behavior we employed the bottle-brush test modified for rats (Riittinen et al. 1986 Dev Psychobiol 19:105-111). Irritability-like behavior was examined by measuring aggressive and defensive responses during the bottle-brush test carried out in juvenile animals immediately after play behavior evaluation at P30 and again in adult animals on P59. Irritability-like behavior testing was performed under dark conditions with a red light and infrared camera recording. Testing consisted of 10 trials per rat in plastic cages (377×325×170 mm) with fresh bedding. During each trial, the rat was placed at the back of the cage. A bottle-brush was rotated toward the animal's whiskers (from the front of the cage). The brush was rotated around the whiskers of the rat for approximately 1 second. The brush was then rotated back to the front of the cage where it hangs vertically for approximately 2 seconds, during which behavioural responses were recorded. An intertrial interval of 10 second was used.
Employing video analysis of the test, the following were scored as aggressive responses: smelling the brush, biting the brush (during the initial phase of rotating the brush forward and back to the starting position), boxing the target, following the brush, exploring the brush (using paws or mouth to manipulate the brush without biting or boxing), mounting the brush, and delayed biting (during the 2 s that the brush hung at the starting position). Additionally, the following were scored as defensive responses: escaping from the brush, digging, burying, jumping, climbing, vocalization, freezing, and grooming. Frequency of each response and the sum of aggressive and defensive behaviours were recorded.
(§3) All data was assessed for outliers (ROUT; Prism V9.02) and then normality using D'Agostino and Pearson normality test for n=8, or Shapiro-Wilks test for n<8 or unequal groups. Data that were non-normally distributed were analysed using Kruskal-Wallis followed by planned comparisons with Dunn's correction. Normally distributed data were analysed using one-way ANOVA or two-way ANOVA followed by planned comparisons with Sidak's correction. […] Statistical significance was defined as p<0.05 using Prism 9.0.2 software for analysis.

rat VPA model [2] = test: Direct social interaction and social play P30 in rat VPA model (Example 5; DS = DS-E)
Method: as §1, §2
At postnatal day 30 and following 8 days treatment with the test compounds, animals were evaluated for juvenile play behavior. […] Animals were first allowed to individually explore the arena for 10-minute acclimatization trial (P29) and 24 hours later evaluated for social play (P30). On day of evaluation animals were scored for play activity measured by pinning (latency to, total duration and frequency), mounting (latency to, total duration and frequency) and latency, frequency and duration of social play behavior (following or approaching test partner, sniffing or social grooming). […]
All data was assessed for outliers (ROUT; Prism V9.02) and then normality using D'Agostino and Pearson normality test for n=8, or Shapiro-Wilks test for n<8 or unequal groups. […]

rat VPA model [3] = test: Marble burying test P58 in rat VPA model (Example 5; DS = DS-E); details: adult P58, risperidone 0.125 mg/kg
Method: as §1, §2
The marble burying test has been employed as an animal model of anxiety and impulsive behavior. […] Over a 10-minute test period animals were allowed to freely explore the apparatus and subsequently removed whereupon marbles covered by at least one half with bedding were considered buried and this number was recorded and was the main outcome measure for this behavior. Video recording of the test period was evaluated for locomotor activity and scored for frequency and duration of digging behavior.
as §3

rat VPA model [4] = test: Social interaction: Social Approach Avoidance (SAA) P60 in rat VPA model (Example 5; DS = DS-E); details: adult; risperidone 0.125 mg/kg
Method: as §1, §2
This test was originally used for assessing anxiety-like behavior and subsequently used to assess the social behavior in potential animal models of schizophrenia (Sams-Dodd, 1995 Behav Pharmacol. 6:55) but has been extended to the study of autism models (Schneider and Przewlocki, 2005 Neuropsychopharmacol. 30:80). Therefore, utilising a model based on published designs (Brodkin et al., 2004 Brain Res. 1002:151; Moy et al., 2004 Genes Brain Behav. 3:287) adult animals were assessed for social preference following prenatal VPA exposure whereby a novel animal was introduced to the test arena (n=8). The main outcome measure was the time engaged in active social behavior. Additionally, the time spent in each of the social, non-social and neutral chamber was also determined. […]

[5] = tested on: valproic acid-induced autism spectrum disorder (ASD) mouse model; test: Valproic acid-induced ASD model, autism-like behaviors, DS vs sCBD and risperidone (Example 6, Table P); parameters: key to Adult open field hyperactivity (spontaneous LMA on day 1) / Adult open field hyperactivity (LMA on day 2) / Adult marble burying / Adult grooming / Juvenile vocalisation: +: improvement; Ø: no change; −: not tested; details: 0.125 mg/kg I.P.
From the text: (§4) The main objective of the following study was to assess the effect of the drug substance (DS) of Example 1 in ameliorating autism-like behavior in valproic acid-induced autism spectrum disorder (ASD) mouse model (FIGS. 19A-B).

[6] = tested on: valproic acid-induced autism spectrum disorder (ASD) mouse model; test: Valproic acid-induced ASD model, social behavior (Example 6, Table P); parameters: key: +: improvement; Ø: no change; −: not tested; details: 0.125 mg/kg I.P.
From the text: as §4

[7] = tested on: valproic acid-induced autism spectrum disorder (ASD) mouse model; test: Valproic acid-induced ASD model, bottle-brush test (irritability) (Example 6, Table P); parameters: key: +: improvement; Ø: no change; −: not tested; details: 0.125 mg/kg I.P.
From the text: as §4

[8] = juvenile P30, 8 days, vs VPA/VEH

Cc1nc2n(c(=O)c1CCN1CCC(c3noc4cc(F)ccc34)CC1)CCCC2 [Risperidone]
defensive behaviours, bottle brush (rat VPA model [1]; adult): no significant effect | aggressive behaviour, bottle brush (rat VPA model [1]; adult, all days of assessment): significantly reduced | irritability score, bottle brush (rat VPA model [1]; adult, all four assessment days): significantly reduced | aggressive responses, bottle brush (rat VPA model [1]; [8]): significantly reduced | irritability score (aggressive + defensive), bottle brush (rat VPA model [1]; [8]): no effect | Social duration and frequency behaviours (rat VPA model [2]; juvenile P30, risperidone 0.125 mg/kg): no effect | any measure of play or social interaction (rat VPA model [2]; juvenile animals, Risperidone 0.125 mg/kg): without effect | VPA-induced digging behaviour (rat VPA model [3]): significantly reduced | number of marbles buried (rat VPA model [3]): no significant effect | number of marbles buried (rat VPA model [3]; listed as risperidone): significantly reduced | time engaged in active social behaviour (VPA deficit) (rat VPA model [4]): not prevented | Adult grooming ([5]; control beside DS): + | Adult marble burying ([5]; control beside DS): + | Adult open field hyperactivity (LMA on day 2) ([5]; control beside DS): + | Adult open field hyperactivity (spontaneous LMA on day 1) ([5]; control beside DS): + | Adult grooming ([5]; control beside sCBD): + | Adult marble burying ([5]; control beside sCBD): + | Adult open field hyperactivity (LMA on day 2) ([5]; control beside sCBD): + | Adult open field hyperactivity (spontaneous LMA on day 1) ([5]; control beside sCBD): + | Adult marble burying ([5]; control beside sCBD-2): + | Adult open field hyperactivity (LMA on day 2) ([5]; control beside sCBD-2): Ø | Adult open field hyperactivity (spontaneous LMA on day 1) ([5]; control beside sCBD-2): + | Adult active social behavior ([6]; control beside DS): Ø | Juvenile play behavior ([6]; control beside DS): Ø | Adult active social behavior ([6]; control beside sCBD): + | Juvenile play behavior ([6]; control beside sCBD): + | Adult active social behavior ([6]; control beside sCBD-2): Ø | Juvenile play behavior ([6]; control beside sCBD-2): Ø | Adult bottle brush irritability test ([7]; control beside DS): + | Juvenile bottle brush irritability test ([7]; control beside DS): Ø | Adult bottle brush irritability test ([7]; control beside sCBD): + | Juvenile bottle brush irritability test ([7]; control beside sCBD): + | Adult bottle brush irritability test ([7]; control beside sCBD-2): + | Juvenile bottle brush irritability test ([7]; control beside sCBD-2): +
